Measurements from the CheMixHub ionic liquid set.
± gives the uncertainty stated by the source.

Experiment: xn = mol fraction of the nth substance listed
Settings: 101 kPa

CCCCCCCCCCCCCC[n+]1ccccc1.O=C([O-])C(O)c1ccccc1 + NCC(=O)O + O
electrical conductivity [S/m]
Settings | 293.15 K | 298.15 K | 303.15 K | 308.15 K | 313.15 K
x1 = 5.26e-06, x2 = 0.001799 | 0.00213 ± 0.00065 | 0.0024 ± 0.00073 | 0.00272 ± 0.00082 | 0.00305 ± 0.00091 | 0.0034 ± 0.001
x1 = 6.85e-06, x2 = 0 | 0.00248 ± 0.00074 | 0.00278 ± 0.00083 | 0.00309 ± 0.00092 | 0.0034 ± 0.001 | 0.0037 ± 0.0011
x1 = 8.31e-06, x2 = 0.0009002 | 0.00273 ± 0.00067 | 0.00309 ± 0.00075 | 0.00343 ± 0.00084 | 0.00385 ± 0.00094 | 0.0042 ± 0.001
x1 = 1.142e-05, x2 = 0.001799 | 0.00389 ± 0.00073 | 0.00438 ± 0.00082 | 0.00491 ± 0.00092 | 0.0055 ± 0.001 | 0.006 ± 0.0011
x1 = 1.319e-05, x2 = 0.0009002 | 0.00415 ± 0.00075 | 0.0047 ± 0.00085 | 0.00527 ± 0.00096 | 0.0058 ± 0.001 | 0.0064 ± 0.0011
x1 = 1.424e-05, x2 = 0 | 0.00472 ± 0.00079 | 0.00529 ± 0.00089 | 0.00587 ± 0.00099 | 0.0065 ± 0.0011 | 0.0071 ± 0.0012
x1 = 1.685e-05, x2 = 0.001799 | 0.0054 ± 0.00081 | 0.0061 ± 0.00092 | 0.0069 ± 0.001 | 0.0076 ± 0.0011 | 0.0084 ± 0.0013
x1 = 1.735e-05, x2 = 0.0009002 | 0.00534 ± 0.00078 | 0.00605 ± 0.00089 | 0.00678 ± 0.00099 | 0.0075 ± 0.0011 | 0.0082 ± 0.0012
x1 = 2.12e-05, x2 = 0.001799 | 0.0066 ± 0.00089 | 0.0075 ± 0.001 | 0.0084 ± 0.0011 | 0.0093 ± 0.0013 | 0.0102 ± 0.0014
x1 = 2.126e-05, x2 = 0 | 0.00671 ± 0.0009 | 0.0076 ± 0.001 | 0.0084 ± 0.0011 | 0.0093 ± 0.0013 | 0.0101 ± 0.0014
x1 = 2.367e-05, x2 = 0.0009002 | 0.00703 ± 0.00092 | 0.008 ± 0.001 | 0.0089 ± 0.0012 | 0.0099 ± 0.0013 | 0.0108 ± 0.0014
x1 = 2.591e-05, x2 = 0.001799 | 0.00789 ± 0.00099 | 0.009 ± 0.0011 | 0.01 ± 0.0012 | 0.0111 ± 0.0014 | 0.0122 ± 0.0015
x1 = 2.811e-05, x2 = 0 | 0.0086 ± 0.001 | 0.0097 ± 0.0012 | 0.0108 ± 0.0013 | 0.0122 ± 0.0015 | 0.0131 ± 0.0016
x1 = 2.982e-05, x2 = 0.0009002 | 0.0088 ± 0.001 | 0.0098 ± 0.0012 | 0.011 ± 0.0013 | 0.0122 ± 0.0014 | 0.0134 ± 0.0016
x1 = 3.081e-05, x2 = 0.001799 | 0.0092 ± 0.0011 | 0.0104 ± 0.0012 | 0.0117 ± 0.0014 | 0.013 ± 0.0015 | 0.0143 ± 0.0017
x1 = 3.46e-05, x2 = 0 | 0.0103 ± 0.0011 | 0.0116 ± 0.0013 | 0.0129 ± 0.0014 | 0.0145 ± 0.0016 | 0.0157 ± 0.0018
x1 = 3.668e-05, x2 = 0.0009002 | 0.0104 ± 0.0011 | 0.0118 ± 0.0013 | 0.0132 ± 0.0014 | 0.0146 ± 0.0016 | 0.0161 ± 0.0018
x1 = 3.679e-05, x2 = 0.001799 | 0.0106 ± 0.0012 | 0.012 ± 0.0013 | 0.0134 ± 0.0015 | 0.015 ± 0.0016 | 0.0166 ± 0.0018
x1 = 4.108e-05, x2 = 0 | 0.0117 ± 0.0012 | 0.0131 ± 0.0014 | 0.0146 ± 0.0015 | 0.0161 ± 0.0017 | 0.0179 ± 0.0019
x1 = 4.337e-05, x2 = 0.0009001 | 0.0117 ± 0.0012 | 0.0131 ± 0.0014 | 0.0148 ± 0.0015 | 0.0165 ± 0.0017 | 0.0183 ± 0.0019
x1 = 4.367e-05, x2 = 0.001799 | 0.0119 ± 0.0013 | 0.0134 ± 0.0014 | 0.015 ± 0.0016 | 0.0168 ± 0.0018 | 0.0186 ± 0.002
x1 = 4.811e-05, x2 = 0 | 0.0129 ± 0.0013 | 0.0144 ± 0.0015 | 0.0161 ± 0.0017 | 0.0179 ± 0.0019 | 0.0198 ± 0.0021
x1 = 4.951e-05, x2 = 0.0009001 | 0.0126 ± 0.0013 | 0.0143 ± 0.0015 | 0.0159 ± 0.0016 | 0.0178 ± 0.0018 | 0.0198 ± 0.002
x1 = 5.11e-05, x2 = 0.001799 | 0.0131 ± 0.0014 | 0.0148 ± 0.0015 | 0.0166 ± 0.0017 | 0.0186 ± 0.0019 | 0.0206 ± 0.0021
x1 = 5.388e-05, x2 = 0 | 0.0137 ± 0.0014 | 0.0154 ± 0.0016 | 0.0172 ± 0.0018 | 0.0191 ± 0.002 | 0.0211 ± 0.0022
x1 = 5.602e-05, x2 = 0.0009001 | 0.0135 ± 0.0014 | 0.0153 ± 0.0016 | 0.0171 ± 0.0018 | 0.0191 ± 0.0019 | 0.0212 ± 0.0022
x1 = 5.726e-05, x2 = 0.001799 | 0.014 ± 0.0014 | 0.0158 ± 0.0016 | 0.0176 ± 0.0018 | 0.0198 ± 0.002 | 0.0219 ± 0.0022
x1 = 5.982e-05, x2 = 0 | 0.0145 ± 0.0015 | 0.0163 ± 0.0017 | 0.0182 ± 0.0019 | 0.0202 ± 0.0021 | 0.0224 ± 0.0023
x1 = 6.216e-05, x2 = 0.0009001 | 0.0144 ± 0.0015 | 0.0162 ± 0.0016 | 0.0181 ± 0.0019 | 0.0202 ± 0.0021 | 0.0224 ± 0.0023
x1 = 6.361e-05, x2 = 0.001799 | 0.0149 ± 0.0015 | 0.0167 ± 0.0017 | 0.0187 ± 0.0019 | 0.0209 ± 0.0021 | 0.0232 ± 0.0024
x1 = 6.559e-05, x2 = 0 | 0.0153 ± 0.0016 | 0.0172 ± 0.0018 | 0.0192 ± 0.0019 | 0.0213 ± 0.0022 | 0.0236 ± 0.0024
x1 = 6.885e-05, x2 = 0.0009001 | 0.0154 ± 0.0016 | 0.0172 ± 0.0018 | 0.0192 ± 0.002 | 0.0214 ± 0.0022 | 0.0239 ± 0.0024
x1 = 6.959e-05, x2 = 0.001799 | 0.0156 ± 0.0016 | 0.0176 ± 0.0018 | 0.0197 ± 0.002 | 0.0221 ± 0.0023 | 0.0245 ± 0.0025
x1 = 7.081e-05, x2 = 0 | 0.016 ± 0.0016 | 0.018 ± 0.0018 | 0.02 ± 0.002 | 0.0223 ± 0.0023 | 0.0246 ± 0.0025
x1 = 7.463e-05, x2 = 0.0009001 | 0.0161 ± 0.0016 | 0.0181 ± 0.0018 | 0.0202 ± 0.0021 | 0.0225 ± 0.0023 | 0.0251 ± 0.0026
x1 = 7.593e-05, x2 = 0.001799 | 0.0165 ± 0.0017 | 0.0185 ± 0.0019 | 0.0207 ± 0.0021 | 0.0233 ± 0.0024 | 0.0258 ± 0.0026
x1 = 7.604e-05, x2 = 0 | 0.0167 ± 0.0017 | 0.0187 ± 0.0019 | 0.0209 ± 0.0021 | 0.0232 ± 0.0024 | 0.0258 ± 0.0026
x1 = 8.023e-05, x2 = 0.0009001 | 0.0168 ± 0.0017 | 0.0189 ± 0.0019 | 0.0211 ± 0.0021 | 0.0237 ± 0.0024 | 0.0263 ± 0.0027
x1 = 8.072e-05, x2 = 0 | 0.0173 ± 0.0018 | 0.0194 ± 0.002 | 0.0217 ± 0.0022 | 0.0241 ± 0.0024 | 0.0266 ± 0.0027
